Results from patent US8877717B2, “Anti-diabetic extract of rooibos” (Zadec ApS, priority 2007, dated 2014).

Tests used:
diabetic rats = experiment: Flavonoids administered to diabetic rats (blood sugar); format: in vivo
[1] = Bioassay of purified fractions for anti-diabetic activity
Text: The partially purified active extract may be dissolved in methanol, and may be further fractionated by column chromatography, employing silica gel as an adsorption medium and a chloroform/30% methanol mixture as an eluent. A plurality of different fractions may be obtained, and each may be evaluated, by suitable bioassaying procedures, to determine the anti-diabetic activity thereof.
A fraction having anti-diabetic activity may preferably be further fractionated such as by column chromatography using silica gel as an adsorption medium and a 9:1 chloroform:methanol solvent, and the resultant sub-fractions bioassayed for their anti-diabetic activity. A sub-fraction displaying anti-diabetic activity may, if desired, be further fractionated and purified, conveniently using a column chromatographic procedure with silica gel as the adsorption medium and a 9:1 ethylacetate:hexane solvent. The resultant purified fractions may again be evaluated by suitable bioassay procedures for their anti-diabetic activity.

O=C(CCc1ccc(O)c(O)c1)c1c(O)cc(O)c([C@@H]2O[C@H](CO)[C@@H](O)[C@H](O)[C@H]2O)c1O [aspalathin, 3′-C-fl-D-glucopyranosyl-2′,3,4,4′,6′-pentahydroxydihydrochalcone]
lowering the blood sugar and alleviating diabetic symptoms (diabetic rats; T1D and T2D rats): effective | effect in diabetic rats compared with the extract (diabetic rats; flavonoids extracted and fractionated from Aspalathus): results similar to those produced by the extract | anti-diabetic activity of purified fraction [1]: good anti-diabetic activity
